Source: patent JPH07173127A, “ヒドロキサム酸誘導体およびそれを有効成分とするエラスターゼ阻害剤” (Kuraray Co Ltd, priority 1993, dated 1995)

Each compound was assayed against T1, human leukocyte-derived elastase [ヒト白血球由来エラスターゼ] (Homo sapiens, UniProt P08246) (assay: エラスターゼ阻害試験 (elastase inhibition test, Test Example 1; fluorogenic substrate)). Conditions: 50% inhibitory concentration of elastase activity; substrate methoxysuccinyl-Ala-Ala-Pro-Val-4-methyl-coumaryl-7-amide; 0.2M Tris-HCl buffer containing 1M NaCl, pH 8.5; 35℃, 5 min incubation; fluorescence 370/460 nm.
T1 construct: ヒト白血球由来エラスターゼはシグマ社; purchased Sigma (USA); host or cells: human leukocytes (natural source, as the printed name says)
T1 sequence (P08246 30-247 limits assumed): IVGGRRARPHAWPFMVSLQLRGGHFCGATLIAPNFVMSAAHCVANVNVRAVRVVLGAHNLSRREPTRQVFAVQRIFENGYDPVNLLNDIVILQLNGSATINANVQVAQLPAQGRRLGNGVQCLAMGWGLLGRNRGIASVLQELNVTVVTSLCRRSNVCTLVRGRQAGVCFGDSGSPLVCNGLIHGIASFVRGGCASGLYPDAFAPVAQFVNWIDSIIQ
Type: biochemical
`CCOC(=O)C(CCC(C)C)(CCC(C)C)C(=O)NO` [実施例2, 2−イソペンチル−5−メチル−2−エトキシカルボニルヘキサノヒドロキサム酸] showed an IC50 of 1 µM.
For `CC(C)CCC(CCC(C)C)C(=O)NO` [実施例4, 2−イソペンチル−5−メチルヘキサノヒドロキサム酸], the IC50 was 1 µM.
In the case of `CCOC(=O)C(CCC(C)C)(CCC(C)C)C(=O)NOCc1ccccc1` [実施例1, 2−イソペンチル−5−メチル−2−エトキシカルボニルヘキサノヒドロキサム酸ベンジルエステル], the IC50 is reported as 3 µM.
